Several values for one entry are separate records, joined by “and”; a condition that tells them apart may be missing. Identical values can stand only once. Inconclusive results and toxic doses are left out.

In the test the test system is BDF1 mice, P388 leukemia ip, median survival T/C. Nature of the test: NCI In Vivo Anticancer Drug Screen. Data for tumor model P388 Leukemia (intraperitoneal) in B6D2F1 (BDF1) mice. Conditions: endpoint: median survival time, higher = longer survival. An outline of the steps: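 T/C = treated-group survival ÷ vehicle-control survival; tumour transplanted into mice before dosing.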

Where [1] appears, read: dose: 100.0 mg/kg/injection, schedule: Q04DX003 (ip), vehicle: Klucel (hydroxypropylcellulose) (HPC).
The mark [2] stands for this setting: dose: 200.0 mg/kg/injection, schedule: Q04DX003 (ip), vehicle: Klucel (hydroxypropylcellulose) (HPC).
Where [3] appears, read: dose: 400.0 mg/kg/injection, schedule: Q04DX003 (ip), vehicle: Klucel (hydroxypropylcellulose) (HPC).
The mark [4] stands for this setting: dose: 100.0 mg/kg/injection, schedule: Q04DX003 (ip), vehicle: other.
[5] abbreviates: dose: 200.0 mg/kg/injection, schedule: Q04DX003 (ip), vehicle: other.
The mark [6] stands for this setting: dose: 100.0 mg/kg/injection, schedule: Q04DX003 (ip), vehicle: saline with Tween-80.
[7] abbreviates: dose: 50.0 mg/kg/injection, schedule: Q01DX009 (ip), vehicle: saline with Tween-80.
Setting [8] is: dose: 100.0 mg/kg/injection, schedule: Q01DX009 (ip), vehicle: saline with Tween-80.
The mark [9] stands for this setting: dose: 200.0 mg/kg/injection, schedule: Q01DX009 (ip), vehicle: saline with Tween-80.
Where [10] appears, read: dose: 200.0 mg/kg/injection, schedule: Q04DX003 (ip), vehicle: saline with Tween-80.
Where [11] appears, read: dose: 400.0 mg/kg/injection, schedule: Q04DX003 (ip), vehicle: saline with Tween-80.

As for `CC(C)([NH-])CO.CC(C)([NH-])CO.[Cl][Cd][Cl]`, the T/C runs as follows: (dose: 5.0 mg/kg/injection, schedule: Q01DX009 (ip), vehicle: saline) 120 % of control; (dose: 6.25 mg/kg/injection, schedule: Q04DX003 (ip), vehicle: saline sonified) 104 % of control; (dose: 10.0 mg/kg/injection, schedule: Q01DX009 (ip), vehicle: saline) 120 % of control; (dose: 10.0 mg/kg/injection, schedule: Q04DX003 (ip), vehicle: saline) 109 % of control; (dose: 12.5 mg/kg/injection, schedule: Q04DX003 (ip), vehicle: saline sonified) 108 % of control; (dose: 20.0 mg/kg/injection, schedule: Q04DX003 (ip), vehicle: saline) 95 % of control.
Turning to `COC(=O)C(Br)C(Br)N1C(=O)c2ccccc2C1=O` (centres undefined), the T/C (dose: 100.0 mg/kg/injection, schedule: Q01DX009 (ip), vehicle: Klucel (hydroxypropylcellulose) (HPC)) was 100 % of control; the T/C under setting [1] was 104 % of control; the T/C (dose: 200.0 mg/kg/injection, schedule: Q01DX009 (ip), vehicle: Klucel (hydroxypropylcellulose) (HPC)) was 104 % of control; the T/C under setting [2] was 100 % of control; the T/C (dose: 400.0 mg/kg/injection, schedule: Q01DX009 (ip), vehicle: Klucel (hydroxypropylcellulose) (HPC)) was 108 % of control; the T/C under setting [3] was 109 % of control.
On to `C=CCN1C(=O)CN=C1SC(=O)Nc1ccc(Cl)cc1`, for which the T/C is, setting by setting: (dose: 50.0 mg/kg/injection, schedule: Q01DX005 (ip), vehicle: saline with Tween-80) 97 % of control; (dose: 100.0 mg/kg/injection, schedule: Q01DX005 (ip), vehicle: saline with Tween-80) 97 % of control.
Turning to `Cn1cnc([N+](=O)[O-])c1Sc1nc(N)nc2c1ncn2C1OC(CO)C(O)C1O` (centres undefined), the T/C was 163 % of control (dose: 7.0 mg/kg/injection, schedule: Q04DX003 (ip), vehicle: saline); 120 % of control (dose: 7.03 mg/kg/injection, schedule: Q01DX009 (ip), vehicle: saline); 163 % of control (dose: 9.2 mg/kg/injection, schedule: Q01DX009 (ip), vehicle: saline); 163 % of control (dose: 14.06 mg/kg/injection, schedule: Q01DX009 (ip), vehicle: saline); 168 % of control and 172 % of control (dose: 16.0 mg/kg/injection, schedule: Q04DX003 (ip), vehicle: saline); 95 % of control (dose: 21.0 mg/kg/injection, schedule: Q01DX009 (ip), vehicle: saline). Besides, the T/C is 161 % of control and 168 % of control (dose: 25.0 mg/kg/injection, schedule: Q04DX003 (ip), vehicle: saline); 100 % of control (dose: 56.25 mg/kg/injection, schedule: Q01DX009 (ip), vehicle: saline); 104 % of control and 113 % of control (dose: 150.0 mg/kg/injection, schedule: Q04DX003 (ip), vehicle: saline); 109 % of control (dose: 225.0 mg/kg/injection, schedule: Q04DX003 (ip), vehicle: saline); 109 % of control (dose: 335.0 mg/kg/injection, schedule: Q04DX003 (ip), vehicle: saline).
For `CCC(C)(C)c1ccc(Oc2ccccc2)c(N)c1`, the T/C reads like this: under setting [4], 109 % of control; under setting [5], 113 % of control.
Consider `CCCCCCOP(=O)(N1CC1)N1CC1`, for which the T/C (dose: 25.0 mg/kg/injection, schedule: Q01DX009 (ip), vehicle: saline) was 123 % of control; the T/C (dose: 50.0 mg/kg/injection, schedule: Q01DX009 (ip), vehicle: saline) was 90 % of control; the T/C under setting [6] was 113 % of control.
As to `COC(=O)c1cc(OC)cc(OC)c1`, the T/C by setting is: under setting [4], 100 % of control; under setting [5], 113 % of control; (dose: 400.0 mg/kg/injection, schedule: Q04DX003 (ip), vehicle: other) 109 % of control.
For the compound `COB(OC)OC`, the T/C by setting is: under setting [1], 91 % of control; under setting [2], 104 % of control; under setting [3], 91 % of control.
With `O=C1c2ccccc2C(=O)N1CC(O)COc1ccccc1` (centres undefined), the T/C is, setting by setting: (dose: 75.0 mg/kg/injection, schedule: Q01DX001 (ip), vehicle: saline sonified) 104 % of control; (dose: 150.0 mg/kg/injection, schedule: Q01DX001 (ip), vehicle: saline sonified) 122 % of control; (dose: 300.0 mg/kg/injection, schedule: Q01DX001 (ip), vehicle: saline sonified) 104 % of control.
Consider `COc1c(O)c(OC)c(C(=O)/C=C/c2ccccc2)c(O)c1OC`, for which the T/C was 107 % of control (dose: 25.0 mg/kg/injection, schedule: Q01DX009 (ip), vehicle: saline with Tween-80); 114 % of control under setting [7]; 99 % of control under setting [8].
For `COc1ccccc1Cl`, the T/C under setting [8] was 103 % of control; the T/C under setting [6] is 116 % of control; the T/C under setting [9] is 103 % of control; the T/C under setting [10] was 104 % of control; the T/C (dose: 400.0 mg/kg/injection, schedule: Q01DX009 (ip), vehicle: saline with Tween-80) was 96 % of control; the T/C under setting [11] was 108 % of control.
On to `O=S(=O)(O)O.[Co+3].[Co+3].[NH2-].[NH2-].[NH2-].[NH2-].[NH2-].[NH2-].[NH2-].[NH2-].[NH2-].[NH2-].[O-][O-]`, for which the T/C was 97 % of control (dose: 1.56 mg/kg/injection, schedule: Q01DX009 (ip), vehicle: saline); 98 % of control (dose: 3.13 mg/kg/injection, schedule: Q01DX009 (ip), vehicle: saline); 97 % of control (dose: 6.25 mg/kg/injection, schedule: Q01DX009 (ip), vehicle: saline).
For `CC(C)(C)C(=O)C(Oc1ccc(Cl)cc1)n1cncn1` (centres undefined), the T/C by setting is: under setting [7], 100 % of control; under setting [8], 100 % of control; under setting [9], 100 % of control.
Turning to `CC(C)CC(C(=O)NC1C(=O)NC(Cc2c[nH]c3ccccc23)C(=O)N/C=C\c2ccc(cc2)OC1C(C)C)N(C)C` (centres undefined), the T/C reads like this: (dose: 0.1 mg/kg/injection, schedule: Q01DX010 (ip), vehicle: alcohol) 100 % of control; (dose: 0.2 mg/kg/injection, schedule: Q01DX010 (ip), vehicle: alcohol) 101 % of control; (dose: 0.8 mg/kg/injection, schedule: Q01DX010 (ip), vehicle: alcohol) 123 % of control; (dose: 1.0 mg/kg/injection, schedule: Q01DX009 (ip), vehicle: steriod suspending solution) 110 % of control; (dose: 2.0 mg/kg/injection, schedule: Q01DX009 (ip), vehicle: steriod suspending solution) 115 % of control; (dose: 4.0 mg/kg/injection, schedule: Q01DX009 (ip), vehicle: steriod suspending solution) 105 % of control. Moreover, under “dose: 8.0 mg/kg/injection, schedule: Q01DX009 (ip), vehicle: steriod suspending solution”, the T/C is 100 % of control.
As to `Cc1ncc(-c2ccc([N+](=O)[O-])cc2)o1`, the T/C (dose: 12.5 mg/kg/injection, schedule: Q01DX009 (ip), vehicle: Klucel (hydroxypropylcellulose) (HPC)) is 87 % of control; the T/C (dose: 12.5 mg/kg/injection, schedule: Q04DX003 (ip), vehicle: Klucel (hydroxypropylcellulose) (HPC)) is 96 % of control; the T/C (dose: 25.0 mg/kg/injection, schedule: Q01DX009 (ip), vehicle: Klucel (hydroxypropylcellulose) (HPC)) is 91 % of control; the T/C (dose: 25.0 mg/kg/injection, schedule: Q04DX003 (ip), vehicle: Klucel (hydroxypropylcellulose) (HPC)) is 92 % of control; the T/C (dose: 50.0 mg/kg/injection, schedule: Q01DX009 (ip), vehicle: Klucel (hydroxypropylcellulose) (HPC)) is 91 % of control; the T/C (dose: 50.0 mg/kg/injection, schedule: Q04DX003 (ip), vehicle: Klucel (hydroxypropylcellulose) (HPC)) is 103 % of control. For the same compound, the T/C under setting [2] was 92 % of control.
On to `O=C(OCCO)c1ccccc1O`, for which the T/C by setting is: (dose: 100.0 mg/kg/injection, schedule: Q01DX009 (ip), vehicle: saline) 107 % of control; (dose: 200.0 mg/kg/injection, schedule: Q01DX009 (ip), vehicle: saline) 115 % of control; (dose: 400.0 mg/kg/injection, schedule: Q01DX009 (ip), vehicle: saline) 100 % of control.
Regarding `C[N+]1(C)N=C([O-])N(c2ccccc2Cl)C1=O`, the T/C is, setting by setting: under setting [6], 100 % of control; under setting [10], 108 % of control; under setting [11], 99 % of control.
